Test results taken from patent US10537603B2, “Pharmaceutical composition for preventing or treating angioedema, containing extract of peony root or mixture of peony root and licorice as active ingredient” (Korea Institute of Oriental Medicine, priority 2014, dated 2020).

Experiments:
[1] = system: human retinal pigment epithelial cell lines (ARPE-19); settings: ARPE-19, Molecular Vision 2011; 17: 3512-3522; cited from earlier work
[2] = system: MNU-induced animal models; assay: Comparison of CJG30R and paeoniflorin in MNU-induced age-related macular degeneration model (ONL thickness); type: in vivo, C57BL/6 mice; settings: CJG30R 100 mg/kg, PF 6.5 mg/kg oral
Experimental: The 6-week-old male C57BL/6 mice were used after acclimatization for 1 week. To induce damage and degeneration of photoreceptor cells among morphological changes of retinal tissues appearing in macular degeneration, 1% (0.05% acetic acid) N-methyl-N-nitrosourea (MNU, Sigma, USA) was intraperitoneally injected to the 7-week-old male C57BL/6 mice (60 mg/kg). The same amount of 0.05% acetic acid was intraperitoneally administered to the normal group. CJG30R (100 mg/kg) and PF-6.6 (6.5 mg/kg) as test drugs were suspended and compounded in 0.5% sodium carboxymethyl cellulose (CMC), orally administrated one day before MNU administration, and orally administrated once per day for 7 days after MNU administration. The same amount of 0.5% CMC was orally administrated to the normal group and the MNU-induced group. After completing administration of the test drugs, eyes were enucleated by carrying out an autopsy on the mice, and then mounted on 10% neutralized formalin for one day and embedded in paraffin to prepare slide sections. Slide sections were stained with Hematoxylin & Eosin (H & E) and observed under an optical microscope. The damage and degeneration of the photoreceptor cells were measured and evaluated by thickness changes in the outer nuclear layer of the retinal tissues.

[3] = system: advanced glycation end product (AGE) generation; assay: Inhibition of advanced glycation end product (AGE) generation, BSA with fructose/glucose, fluorescence; type: biochemical; settings: BSA 10 mg/ml, 0.2 M fructose + 0.2 M glucose, 37° C., 7 days
Experimental: To determine the inhibitory effect of advanced glycation end product generation of the peony root extract, or the mixed extract of peony root and licorice, the present inventors used 10 mg/ml of bovine serum albumin (Sigma, St. Louis, Mo., USA) dissolved in 50 mM phosphate buffer (pH 7.4) as a protein source and a mixed liquid of 0.2 M fructose and 0.2 M glucose as a sugar source, respectively.
The extracts of <Example 1> and a positive control group (aminoguanidine) were dissolved in 30 μl of 0.2% DMSO, and then again dissolved in 15% tween 80. The protein source, the sugar source and the extracts of the present invention as prepared above were mixed and compounded to a total of 1 ml, and then each cultured at 37° C. for 7 days to allow for glycation. At this time 0.02% azide (sodium azide) was added thereto to prevent from generating bacteria during the culture period. After the culture fluorescence (spectrofluorometric detector; Bio-TEK, Synergy HT, USA; Ex: 350 nm; Em: 450 nm) was measured and then calculated with Equation 1 below, with showing the result in Table 2.

Structure (SMILES) | Effect on cell death due to H2O2 and oxidative stress [1] | Effect on outer nuclear layer damage as compared to the MNU administration group [2] | ONL thickness (AU) ([2]; MNU 60 mg/kg i.p., NOR 1.99 ± 0.21, MNU 0.92 ± 0.17) | ONL thickness (%) ([2]; NOR = 100, MNU = 0) | IC50, inhibitory effect of advanced glycation end product generation [3]
C[C@@]12C[C@@]3(O)O[C@@H](O1)[C@]1(COC(=O)c4ccccc4)[C@H]3C[C@@]12O[C@@H]1O[C@H](CO)[C@@H](O)[C@H](O)[C@H]1O [PF-6.5, paeoniflorin] | inhibitory effects | no effect at all | 0.96 ± 0.17 AU | 3.52 ± 16.11% | –
N=C(N)NN [Aminoguanidine, aminoguanidine] | – | – | – | – | 81.38 ± 2.70 µg/mL
